Data published in PMC7957705 (Molecules, 2021).
Where a SMILES comes first, the peptide text is derived from it. Bridges are numbered along the chain shown (N, C = ends). Triazole bridges read from a SMILES are 1,4-linked. [ ]: non-standard residue; d: D form. The star is where a group is joined. Benzoyl(4-guanidino) = N=C(N)Nc1ccc(C(=O)*)cc1; Aha = [N-]=[N+]=NCC[C@H](N)C(=O)O; β3hV = CC(C)[C@H](N)CC(=O)O; Nle = CCCC[C@H](N)C(=O)O; Pra = C#CC[C@H](N)C(=O)O

Biological target: T1, human MCH-R1 (Homo sapiens, UniProt Q99705)
T1 construct: expressed in transfected cells
Test: Binding displacement of [125I]-[Phe13,Tyr19]-MCH at membranes expressing human MCH-R1
Method: Stable cell lines were obligatory for all receptor programs. We cloned the human receptor and established the cell line as previously described. In brief, HEK293 (HEK) cells were grown in Dulbecco’s Modified Eagle medium (DMEM) supplemented with 10% fetal calf serum, 2 mM glutamine, 100 IU/mL penicillin and […] streptomycin. They were seeded at 5 × 10^6 cells in T75 cm^2 culture flasks. One day later, they were transfected with […] of the pcDNA3.1 (Invitrogen, Groningen, The Netherlands) containing the human MCH-R1 using lipofectamine (Life Technologies, Cergy Pontoise, France), as previously described. One day later, cells were trypsinized, resuspended in a complete DMEM medium containing […] of geneticin and seeded at different dilutions in 96-well plates which were kept for 2 to 3 weeks in a humidified CO2 incubator. At the end of the selection period, isolated clones were picked up, amplified, and further characterized by cyclic AMP experiments. For each cell line, one positive clone was subcloned before being used for all of the cyclic AMP, [^35S]-GTPγS and receptor binding experiments necessary to characterize them. The stable HEK293 cell line expressing the human MCH-R1 was HEK-hMCH-R1.
Membrane preparations were classically made as previously described. In brief, the HEK-hMCH-R cell line was grown to confluency, harvested in PBS buffer containing 2 mM EDTA and centrifuged at 10,000× g for 5 min (4°C). The resulting pellet was suspended in 20 mM Hepes buffer (pH 7.5), containing 5 mM EGTA and homogenized using a Kinematica polytron. The homogenate was then centrifuged (95,000× g, 30 min, 4 °C) and the resulting pellet was suspended in 50 mM HEPES buffer (pH 7.5), containing 10 mM MgCl2 and 2 mM EGTA. Aliquots of membrane preparations were stored at −80 °C until use. Binding has been described in numerous publications and the test was based on Mac Donald et al.’s description. […] Nonspecific binding is determined in the presence of 0.1 μM MCH. […] The filters are dried and then counted for radioactivity in a scintillation counter (Topcount, Packard) using a scintillation cocktail (Microscint 0, Packard). The results are expressed as percentage inhibition of the control radioligand specific binding. The standard reference compound is MCH, which was tested in each experiment at 8 concentrations to obtain a competition curve from which its IC50 is calculated. The high level of assay robustness and reproducibility of each control monitored over several decades (internal data base, Eurofins) and included in every assay ensure results’ reliability even when performed only twice. […]

T1 sequence (Q99705 whole entry): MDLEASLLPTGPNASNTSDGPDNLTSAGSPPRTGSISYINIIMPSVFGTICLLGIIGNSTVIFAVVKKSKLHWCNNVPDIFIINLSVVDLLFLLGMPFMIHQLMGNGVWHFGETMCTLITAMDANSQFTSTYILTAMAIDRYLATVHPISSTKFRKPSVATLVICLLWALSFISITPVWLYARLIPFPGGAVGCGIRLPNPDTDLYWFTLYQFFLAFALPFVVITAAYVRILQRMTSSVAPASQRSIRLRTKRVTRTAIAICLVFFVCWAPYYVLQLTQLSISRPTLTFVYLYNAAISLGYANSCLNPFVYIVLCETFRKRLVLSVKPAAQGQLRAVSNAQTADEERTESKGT

CCCC[C@@H]1NC(=O)[C@@H](NC(=O)c2ccc(NC(=N)N)cc2)CCn2cc(nn2)C[C@@H](C(=O)N[C@@H](Cc2c[nH]c3ccccc23)C(=O)O)NC(=O)[C@@H]2CCCN2C(=O)[C@H](CCCNC(=N)N)NC(=O)C[C@H](C(C)C)NC(=O)[C@H](CCCNC(=N)N)NC(=O)[C@H](CC(C)C)NC1=O [GPS18169] ({Benzoyl(4-guanidino)}-[Aha][Nle]LR[β3hV]RP[Pra]W-OH; triazole 1-8)
affinity at the MCH-R1 receptor (in words): low nanomolar range
